Experiments:
[1] = system: mouse Lewis lung carcinoma cells; assay: ALAMAR BLUE cell viability assay; assay type: cell-based; details: 0 to 37 μg/ml, 24 hours
Method: Bovine aortic endothelial cells (BAEC), human umbilical vein endothelial cells (HUVEC), fibroblast cells, A549 human lung carcinoma cells (A549), MDA-MB231 human breast carcinoma cells (MB231), MCF7 human breast carcinoma cells (MCF7) were treated with 37 μg/ml of receptor, or buffer alone, for 24 hours. Viability of the cells was measured using the ALAMAR BLUE™ assay, which measures the capacity of cells to metabolize the ALAMAR BLUE™ dye. The ALAMAR BLUE™ assay (available from Biosource International, Camarillo, Calif.) quantitatively measures the proliferation of cell lines and can establish the relative cytotoxicity of chemical agents. The assay incorporates a fluorometric/colorimetric growth indicator based on detection of metabolic activity. The system incorporates an oxidation-reduction (redox) indicator that both fluoresces and changes color in response to chemical reduction of growth medium resulting from cell growth. […] Data can be collected using either fluorescence-based instrumentation (530-560 nm excitation wavelength and 590 nm emission wavelength) or absorbance-based instrumentation (570 nm and 600 nm).
BAEC and BSM cells were treated with increasing concentrations of angiocidin (0, 0.625, 1.25, 2.5, 5, 15, 26 and 37 μg/ml) for 24 hours. Cell viability was measured using the ALAMAR BLUE Tm assay. […]

Lewis lung carcinoma = assay: Growth of Lewis lung carcinoma flank tumors; assay type: in vivo, mice; details: 50 μg IV on days 1, 3, 5
Text: Ten animals were subcutaneously injected in the flank with […] Lewis lung carcinoma cells. Evaluation of flank tumors is a well recognized model for angiogenesis, because flank tumors are highly dependent on angiogenesis. O'Reilly, M. S., Angiostatin: A Novel Angiogenesis Inhibitor that Mediates the Suppression of Metastasis by a Lewis Lung Carcinoma, Cell 79: 315-28 (1994). After 9 days when a palpable tumor developed, mice were divided into two groups of 5 animals per group. One group of 5 mice were treated with an IV injection of 50 μg of angiocidin in Hepes buffered saline. The control group was treated with Hepes buffered saline. Mice were treated on days 1, 3, and 5 after the groups were divided, and sacrificed on day 7.
The tumors were embedded in paraffin and cut into 5 micron sections. The sections were stained with hemotoxylin and eosin. Hemotoxylin stains DNA blue, and eosin stains protein pink. FIG. 36 illustrates the difference between control (panels A and C) and angiocidin (panels B and D) treated cells. Panels A and B are at a magnification of 400×under a light microscope and panels C and D are at a magnification of 200×under a light microscope.

Substance: angiocidin: Cys-Ser-Val-Thr-Cys-Gly (SEQ ID NO: 1)-specific thrombospondin (TSP-1) receptor protein; recombinant form of SEQ ID NO: 2 used in the Examples
- cell viability [1]: does not affect the Lewis lung cells
- tumor histology (hemotoxylin and eosin) (Lewis lung carcinoma): significant necrosis and cell death
- tumor growth (relative tumor volumes) (Lewis lung carcinoma; 7 day treatment period): grew only slightly and at a linear rate
- flank tumor size (Lewis lung carcinoma; sacrificed day 7): much smaller than the control mice
